Results published in EP4617278A1, “NUCLEOTIDE ANALOG, AND COMPOSITION AND USE THEREOF” (priority 2022, dated 2024).

tested on: RSV A2 virus; assay: RSV CPE assay; settings: human respiratory syncytial virus, HEp-2, 120 h, read-out: RSV A2 (Hep-2 cell) EC50

First: CC(C)(C)C(=O)O[C@H]1[C@@H](OC(=O)C(C)(C)C)[C@](C#N)(c2ccc3c(N)ncnn23)O[C@@H]1CO[P@@](=O)(N[C@@H](CC(=O)OC1CCC1)C(=O)OC1CCC1)Oc1ccccc1 [Compound 57b, (2R,3R,4R,5R)-2-(4-aminopyrrolo[2,1-f][1,2,4]triazin-7-yl)-2-cyano-5-((((S)-(((S)-1,4-dicyclobutoxy-1,4-dioxobutan-2-yl)amino)(phenoxy)phosphoryl)oxy)methyl)tetrahydrofuran-3,4-diyl bis(2,2-dimethylpropionate)]
Second: CC(C)(C)C(=O)O[C@H]1[C@@H](OC(=O)C(C)(C)C)[C@](C#N)(c2ccc3c(N)ncnn23)O[C@@H]1CO[P@](=O)(N[C@H](C=O)CC(=O)OC1(C2CCCC2)CCCC1)Oc1ccccc1 [Compound 61a, (2R,3R,4R,5R)-2-(4-aminopyrrolo[2,1-f][1,2,4]triazin-7-yl)-2-cyano-5-((((R)-(((S)-1,4-bicyclopentyloxy-1,4-dioxobutan-2-yl)amino)(phenoxy)phosphoryl)oxy)methyl)tetrahydrofuran-3,4-diyl bis(2,2-dimethylpropionate)]
The EC50 of the first is lower: 200 to 500 nM for the first, over 1000 nM for the second. The first is the more potent here.

First: CC(C)(C)C(=O)O[C@H]1[C@@H](OC(=O)C(C)(C)C)[C@](C#N)(c2ccc3c(N)ncnn23)O[C@@H]1CO[P@@](=O)(N[C@H](C=O)CC(=O)OC1(C2CCCC2)CCCC1)Oc1ccccc1 [Compound 61b, (2R,3R,4R,5R)-2-(4-aminopyrrolo[2,1-f][1,2,4]triazin-7-yl)-2-cyano-5-((((S)-(((S)-1,4-bicyclopentyloxy-1,4-dioxobutan-2-yl)amino)(phenoxy)phosphoryl)oxy)methyl)tetrahydrofuran-3,4-diyl bis(2,2-dimethylpropionate)]
Second: CC(C)C(=O)O[C@H]1[C@@H](OC(=O)C(C)C)[C@](C#N)(c2ccc3c(N)ncnn23)O[C@@H]1CO[P@@](=O)(N[C@@H](Cc1ccccc1)C(=O)OC1CCC1)Oc1ccccc1 [Compound 63b, (2R,3R,4R,5R)-2-(4-aminopyrrolo[2,1-f][1,2,4]triazin-7-yl)-2-cyano-5-((((S)-(((S)-1-cyclobutoxy-1-oxo-3-phenylpropan-2-yl)amino)(phenoxy)phosphoryl)oxy)methyl)tetrahydrofuran-3,4-diyl bis(2-methylpropionate)]
The EC50 of the first is higher: 500 to 1000 nM for the first, under 100 nM for the second. The second is the more potent here.

Compared with `CCC(CC)COC(=O)C[C@H](N[P@@](=O)(OC[C@H]1O[C@@](C#N)(c2ccc3c(N)ncnn23)[C@H](OC(=O)C(C)C)[C@@H]1OC(=O)C(C)C)Oc1ccccc1)C(=O)OCC(CC)CC` [Compound 62a, (2R,3R,4R,5R)-2-(4-aminopyrrolo[2,1-f][1,2,4]triazin-7-yl)-2-cyano-5-((((R)-(((S)-1,4-bis(2-ethylbutoxy)-1,4-dioxobutan-2-yl)amino)(phenoxy)phosphoryl)oxy)methyl)tetrahydrofuran-3,4-diyl bis(2-methylpropionate)], `CCC(CC)COC(=O)C[C@H](N[P@](=O)(OC[C@H]1O[C@@](C#N)(c2ccc3c(N)ncnn23)[C@H](OC(=O)C(C)C)[C@@H]1OC(=O)C(C)C)Oc1ccccc1)C(=O)OCC(CC)CC` [Compound 62b, (2R,3R,4R,5R)-2-(4-aminopyrrolo[2,1-f][1,2,4]triazin-7-yl)-2-cyano-5-((((S)-(((S)-1,4-bis(2-ethylbutoxy)-1,4-dioxobutan-2-yl)amino)(phenoxy)phosphoryl)oxy)methyl)tetrahydrofuran-3,4-diyl bis(2-methylpropionate)] is lower in EC50: 200 to 500 nM for the first, under 100 nM for the second.

First: COC(C)(C)COC(=O)[C@H](Cc1ccccc1)N[P@@](=O)(OC[C@H]1O[C@@](C#N)(c2ccc3c(N)ncnn23)[C@H](OC(=O)C(C)C)[C@@H]1OC(=O)C(C)C)Oc1ccccc1 [Compound 64a, (2R,3R,4R,5R)-2-(4-aminopyrrolo[2,1-f][1,2,4]triazin-7-yl)-2-cyano-5-((((R)-(((S)-1-(2-methoxy-2-methylpropoxy)-1-oxo-3-phenylpropan-2-yl)amino)(phenoxy)phosphoryl)oxy)methyl)tetrahydrofuran-3,4-diyl bis(2-methylpropionate)]
Second: COC(C)(C)COC(=O)[C@H](Cc1ccccc1)N[P@](=O)(OC[C@H]1O[C@@](C#N)(c2ccc3c(N)ncnn23)[C@H](OC(=O)C(C)C)[C@@H]1OC(=O)C(C)C)Oc1ccccc1 [Compound 64b, (2R,3R,4R,5R)-2-(4-aminopyrrolo[2,1-f][1,2,4]triazin-7-yl)-2-cyano-5-((((S)-(((S)-1-(2-methoxy-2-methylpropoxy)-1-oxo-3-phenylpropan-2-yl)amino)(phenoxy)phosphoryl)oxy)methyl)tetrahydrofuran-3,4-diyl bis(2-methylpropionate)]
The EC50 of the first is higher: 100 to 200 nM for the first, under 100 nM for the second. The second is the more potent here.

same assay, conditions: read-out: RSV A2 (Hep-2 cell) EC50; HEp-2 cells, RSV A2 virus, 5 days, CCK8

`CC(C)C(=O)O[C@H]1[C@@H](OC(=O)C(C)C)[C@](C#N)(c2ccc3c(N)ncnn23)O[C@@H]1CO[P@](=O)(N[C@@H](Cc1ccccc1)C(=O)OC1CCC1)Oc1ccccc1` [Compound 63a] and “(2R,3R,4R,5R)-2-(4-aminopyrrolo[2,1-f][1,2,4]triazin-7-yl)-2-cyano-5-((((R)-(((S)-1,4-bicyclopentyloxy-1,4-dioxobutan-2-yl)amino)(phenoxy)phosphoryl)oxy)methyl)tetrahydrofuran-3,4-diyl diacetate [Compound 58a]” fall in the same range of EC50: 200 to 500 nM for the first, 200 to 500 nM for the second.

First: (2R,3R,4R,5R)-2-(4-aminopyrrolo[2,1-f][1,2,4]triazin-7-yl)-2-cyano-5-((((R)-(((S)-1,4-bicyclopentyloxy-1,4-dioxobutan-2-yl)amino)(phenoxy)phosphoryl)oxy)methyl)tetrahydrofuran-3,4-diyl dipropionate [Compound 59a]
Second: (2R,3R,4R,5R)-2-(4-aminopyrrolo[2,1-f][1,2,4]triazin-7-yl)-2-cyano-5-((((R)-(((S)-1,4-dicyclobutoxy-1,4-dioxobutan-2-yl)amino)(phenoxy)phosphoryl)oxy)methyl)tetrahydrofuran-3,4-diyl diacetate [Compound 55a]
The EC50 of the first is higher: 200 to 500 nM for the first, 100 to 200 nM for the second.

“(2R,3R,4R,5R)-2-(4-aminopyrrolo[2,1-f][1,2,4]triazin-7-yl)-2-cyano-5-((((R)-(((S)-1,4-dicyclobutoxy-1,4-dioxobutan-2-yl)amino)(phenoxy)phosphoryl)oxy)methyl)tetrahydrofuran-3,4-diyl dipropionate [Compound 56a]” and “(2R,3R,4R,5R)-2-(4-aminopyrrolo[2,1-f][1,2,4]triazin-7-yl)-2-cyano-5-((((R)-(((S)-1-(2-ethylbutoxy)-1-oxopropan-2-yl)amino)(((isopropoxycarbonyl)oxy)methoxy)phosphoryl)oxy)methyl)tetrahydrofuran-3,4-diyl diacetate [Compound 5a]” fall in the same range of EC50: 200 to 500 nM for the first, 200 to 500 nM for the second.

First: (2R,3R,4R,5R)-2-(4-aminopyrrolo[2,1-f][1,2,4]triazin-7-yl)-2-cyano-5-((((R)-(((S)-1-isopropoxy-1-oxopropan-2-yl)amino)(((isopropoxycarbonyl)oxy)methoxy)phosphoryl)oxy)methyl)tetrahydrofuran-3,4-diyl diacetate [Compound 1a]
Second: (2R,3R,4R,5R)-2-(4-aminopyrrolo[2,1-f][1,2,4]triazin-7-yl)-2-cyano-5-((((S)-(((S)-1,4-bicyclopentyloxy-1,4-dioxobutan-2-yl)amino)(phenoxy)phosphoryl)oxy)methyl)tetrahydrofuran-3,4-diyl diacetate [Compound 58b]
The EC50 of the first is higher: 100 to 200 nM for the first, under 100 nM for the second.

Compared with “(2R,3R,4R,5R)-2-(4-aminopyrrolo[2,1-f][1,2,4]triazin-7-yl)-2-cyano-5-((((S)-(((S)-1,4-bicyclopentyloxy-1,4-dioxobutan-2-yl)amino)(phenoxy)phosphoryl)oxy)methyl)tetrahydrofuran-3,4-diyl dipropionate [Compound 59b]”, “(2R,3R,4R,5R)-2-(4-aminopyrrolo[2,1-f][1,2,4]triazin-7-yl)-2-cyano-5-((((S)-(((S)-1,4-dicyclobutoxy-1,4-dioxobutan-2-yl)amino)(phenoxy)phosphoryl)oxy)methyl)tetrahydrofuran-3,4-diyl diacetate [Compound 55b]” is higher in EC50: under 100 nM for the first, 100 to 200 nM for the second.

“(2R,3R,4R,5R)-2-(4-aminopyrrolo[2,1-f][1,2,4]triazin-7-yl)-2-cyano-5-((((S)-(((S)-1,4-dicyclobutoxy-1,4-dioxobutan-2-yl)amino)(phenoxy)phosphoryl)oxy)methyl)tetrahydrofuran-3,4-diyl dipropionate [Compound 56b]” and “(2R,3R,4R,5R)-2-(4-aminopyrrolo[2,1-f][1,2,4]triazin-7-yl)-2-cyano-5-((((S)-(((S)-1-(2-ethylbutoxy)-1-oxopropan-2-yl)amino)(((isopropoxycarbonyl)oxy)methoxy)phosphoryl)oxy)methyl)tetrahydrofuran-3,4-diyl diacetate [Compound 5b]” fall in the same range of EC50: 100 to 200 nM for the first, 100 to 200 nM for the second.

First: (2R,3R,4R,5R)-2-(4-aminopyrrolo[2,1-f][1,2,4]triazin-7-yl)-2-cyano-5-((((S)-(((S)-1-isopropoxy-1-oxopropan-2-yl)amino)(((isopropoxycarbonyl)oxy)methoxy)phosphoryl)oxy)methyl)tetrahydrofuran-3,4-diyl diacetate [Compound 1b]
Second: (2R,3R,4R,5R)-2-(4-aminopyrrolo[2,1-f][1,2,4]triazin-7-yl)-5-((((bis(((isopropoxycarbonyl)oxy)methoxy))phosphoryl)oxy)methyl)-2-cyanotetrahydrofuran-3,4-diyldiisopropyl bis(carbonate) [Compound 28]
The EC50 of the first is lower: 100 to 200 nM for the first, over 1000 nM for the second. The first is the more potent here.
